Data: article PMC9246773, “Assessing the Activity of Antimicrobial Peptides Against Common Marine Bacteria Located in Rotifer (Brachionus plicatilis) Cultures” (Probiotics and Antimicrobial Proteins, 2022)
≈ marks a conversion by molar mass, not a printed value. Non-standard residues stand in square brackets, D forms with d. Residues, ends and D or L forms follow the SMILES beside them.

Experiments:
[1] = tested on: MRSA and P. aeruginosa bacterial infections; settings: MRSA and P. aeruginosa infections in mice and nematodes, respectively; ref [23], [64], [65]; cited from earlier work
Protocol: The MIC assay under high salt concentration identified these peptides as being effective against V. rotiferianus and T. discolor at a high peptide concentration (65 µg mL^−1), however, the two bacterial species were not identified in the control rotifer culture, and the reduction of their presence cannot be quantified. In relation to other AMP research, the majority of AMPs are currently teste ...

[2] = Test whether the AMPs precipitated in MHB and required acetic acid adjustments; format: physicochemical; settings: MIC two or more dilutions higher without acetic acid than with acetic acid = requires acetic acid adjustments; MHB 0‰
Protocol: The protocol was followed to determine the minimum inhibitory concentration (MIC) of the selected peptides. Two MIC assays were performed, firstly to determine whether each peptide precipitated in MHB and thereby required acetic acid adjustments (supplementary materials) and secondly, to determine the antimicrobial activity of each peptide in artificial seawater (25‰). Peptide stock solutions (1.3 mg mL^−1) were made by diluting the peptides in sterile deionised water. MHB was made with deionised water to reach a concentration of approaching 0‰ and artificial sea salts (Sigma-Aldrich® S9883) to reach a salinity of 25‰.
A broth microdilution protocol was followed to test whether the AMPs precipitated in MHB. The isolates T. discolor and Pseudoalteromonas were excluded from this assay because they required marine salts for growth. The peptides HHC10 and HHC36 previously required acetic acid adjustments according to [63] and were not trialled in this assay. To test if peptides required acetic acid, each peptide was diluted 1:2 in acetic acid (0.02% acetic acid w/v, containing 0.4% BSA) solution. […] The 96-well plates were incubated at 25 °C and read at 24 and 48 hours. The MIC was visually determined using a Sensititre™ Vizion™ Digital MIC Viewing System (Thermo Scientific™), and the lowest AMP concentration that had no bacterial growth was recorded as the MIC after 48 hours. […]

Vibrio harveyi [3] = format: cell-based; settings: 48 h
Summary of the method: (§1)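 MIC, twofold broth microdilution in polypropylene plates; peptides 0.125–65 µg mL^−1; ~5 × 10^5 CFU mL^−1; MHB at 0‰ or 25‰ salinity. Acetic acid/BSA diluent where peptides precipitated. Duplicates. T. discolor: 1 MHB:7 seawater (25‰) only.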

Vibrio alginolyticus [4] = format: cell-based; settings: 48 h
Summary of the method: as §1

Shewanella sp. [5] = format: cell-based; settings: 48 h
Summary of the method: as §1

Pseudoalteromonas sp. = format: cell-based; settings: 48 h
Summary of the method: as §1

Tenacibaculum discolor = format: cell-based; settings: 48 h
Summary of the method: as §1

[6] = tested on: Vibrio harveyi (ATCC 35084); format: cell-based; settings: ATCC 35084, 48 h
Summary of the method: as §1

Vibrio scophthalmi [7] = format: cell-based; settings: 48 h
Summary of the method: as §1

[8] = tested on: Escherichia coli (ATCC 25922); format: cell-based; settings: ATCC 25922, 48 h
Summary of the method: as §1

Vibrio rotiferianus [9] = format: cell-based; settings: 48 h
Summary of the method: as §1

Vibrio harveyi [10] = format: cell-based; settings: 48 h; remark: listed apart in the source
Summary of the method: (§2)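 Broth microdilution MIC of antimicrobial peptides in Mueller–Hinton broth made with artificial seawater (25‰) or deionised water (0‰), with or without acetic acid/BSA peptide diluent. Inoculum about 5 × 10^5 CFU mL^-1 from 0.5 McFarland suspensions; peptides 0.125 - 65µg mL^-1; 25 °C for 48 h; MIC = lowest concentration without visible growth.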

Vibrio alginolyticus [11] = format: cell-based; settings: 48 h; remark: listed apart in the source
Summary of the method: as §2

Shewanella sp. [12] = format: cell-based; settings: 48 h; remark: listed apart in the source
Summary of the method: as §2

[13] = tested on: Vibrio harveyi (ATCC 35084); format: cell-based; settings: ATCC 35084, 48 h; remark: listed apart in the source
Summary of the method: as §2

Vibrio scophthalmi [14] = format: cell-based; settings: 48 h; remark: listed apart in the source
Summary of the method: as §2

[15] = tested on: Escherichia coli (ATCC 25922); format: cell-based; settings: ATCC 25922, 48 h; remark: listed apart in the source
Summary of the method: as §2

Vibrio rotiferianus [16] = format: cell-based; settings: 48 h; remark: listed apart in the source
Summary of the method: as §2

CC[C@@H](C)[C@@H](NC(=O)[C@@H](C)NC(=O)[C@@H](CCCNC(=N)N)NC(=O)[C@@H](Cc1c[nH]c2ccccc12)NC(=O)[C@@H](CCC(N)=O)NC(=O)[C@H](N)C(C)C)C(=O)N[C@H](CCCNC(=N)N)C(=O)N[C@@H](C(=O)N[C@H](CCCNC(=N)N)C(=O)N[C@@H](C(=O)N[C@@H](C(=O)N[C@H](CCCNC(=N)N)C(N)=O)[C@H](C)CC)C(C)C)C(C)C [DJK5] (H-[dV][dQ][dW][dR][dA][dI][dR][dV][dR][dV][dI][dR]-NH2; N-terminus and C-terminus assumed)
reduction of bacterial infections in terrestrial organisms [1]: successfully reduced | requirement for acetic acid (precipitation in MHB) [2]: did not | MIC V. harveyi, salinity 0‰ (Vibrio harveyi [3]): 4.06 µg/mL (≈ 2.62 µM) | MIC V. harveyi, salinity 25‰ (Vibrio harveyi [3]): > 65 µg/mL | MIC V. alginolyticus, salinity 0‰ (Vibrio alginolyticus [4]): 4.06 µg/mL (≈ 2.62 µM) | MIC V. alginolyticus, salinity 25‰ (Vibrio alginolyticus [4]): > 65 µg/mL | MIC Shewanella sp., salinity 0‰ (Shewanella sp. [5]): 2.03 µg/mL (≈ 1.31 µM) | MIC Shewanella sp., salinity 25‰ (Shewanella sp. [5]): > 65 µg/mL | MIC Pseudoalteromonas sp., salinity 25‰ (Pseudoalteromonas sp.): > 65 µg/mL | MIC T. discolor, salinity 25‰ (Tenacibaculum discolor): > 65 µg/mL | MIC V. harveyi ATCC 35084, salinity 0‰ [6]: 2.03 µg/mL (≈ 1.31 µM) | MIC V. harveyi ATCC 35084, salinity 25‰ [6]: > 65 µg/mL | MIC V. scophthalmi, salinity 0‰ (Vibrio scophthalmi [7]): 0.51 µg/mL (≈ 0.329 µM) | MIC V. scophthalmi, salinity 25‰ (Vibrio scophthalmi [7]): > 65 µg/mL | MIC E. coli ATCC 25922, salinity 0‰ [8]: 2.03 µg/mL (≈ 1.31 µM) | MIC E. coli ATCC 25922, salinity 25‰ [8]: > 65 µg/mL | MIC V. rotiferianus, salinity 0‰ (Vibrio rotiferianus [9]): 1.02 µg/mL (≈ 0.658 µM) | MIC V. rotiferianus, salinity 25‰ (Vibrio rotiferianus [9]): > 65 µg/mL | MIC V. harveyi, Acetic (Vibrio harveyi [10]): 2.03 µg/mL (≈ 1.31 µM) | MIC V. harveyi, No acetic (Vibrio harveyi [10]): 4.06 µg/mL (≈ 2.62 µM) | MIC V. alginolyticus, Acetic (Vibrio alginolyticus [11]): 4.06 µg/mL (≈ 2.62 µM) | MIC V. alginolyticus, No acetic (Vibrio alginolyticus [11]): 4.06 µg/mL (≈ 2.62 µM) | MIC Shewanella sp., Acetic (Shewanella sp. [12]): 1.02 µg/mL (≈ 0.658 µM) | MIC Shewanella sp., No acetic (Shewanella sp. [12]): 1.02 µg/mL (≈ 0.658 µM) | MIC V. harveyi ATCC 35084, Acetic [13]: 4.06 µg/mL (≈ 2.62 µM) | MIC V. harveyi ATCC 35084, No acetic [13]: 2.03 µg/mL (≈ 1.31 µM) | MIC V. scophthalmi, Acetic (Vibrio scophthalmi [14]): 0.51 µg/mL (≈ 0.329 µM) | MIC V. scophthalmi, No acetic (Vibrio scophthalmi [14]): 0.51 µg/mL (≈ 0.329 µM) | MIC E. coli ATCC 25922, Acetic [15]: 4.06 µg/mL (≈ 2.62 µM) | MIC E. coli ATCC 25922, No acetic [15]: 8.13 µg/mL (≈ 5.24 µM) | MIC V. rotiferianus, Acetic (Vibrio rotiferianus [16]): 1.02 µg/mL (≈ 0.658 µM) | MIC V. rotiferianus, No acetic (Vibrio rotiferianus [16]): 1.02 µg/mL (≈ 0.658 µM)
